8 compounds from PubChem BioAssay (NCI) can be followed below.

Broadly, the GI50 is the concentration that inhibits growth by half. For orientation: TGI means the concentration at which net growth stops. High values mean lower sensitivity of the cells, low ones greater sensitivity of the cells.

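Tested at 5 concentrations; 48 h exposure; 96-well plates; endpoints linearly interpolated, else capped at highest concentration. Abbreviation: GI50, concentration required for 50% inhibition of growth. TGI: total growth inhibition.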 Where only a bound is given, the exact number is not on record here.

Experiment in all cases: DTP human tumour cell line panel, 48 h
Experiment [1] deals with MCF7 breast.
The test system of experiment [2] is IGROV1 ovarian.
The subject of experiment [3] is NCI-H226 lung.
Experiment [4] deals with SF-295 CNS.
Experiment [5] deals with OVCAR-5 ovarian.
In experiment [6] the test system is UO-31 renal.
The test system of experiment [7] is DU-145 prostate.
In experiment [8] the test system is ACHN renal.
The test system of experiment [9] is HOP-62 NSCLC.
Experiment [10] relates to SN12C renal.

For `CN(C)c1ccc2nc3ccc(=O)cc-3sc2c1`, the GI50 in experiment [1] is 0.445 µM; in [2], 2.48 µM; in experiment [3], 7.59 µM; in experiment [4] it was 1.52 µM; in experiment [5] it was 4.68 µM; in experiment [6] it was 0.545 µM. Also, the GI50 in [7] was 1.8 µM; in experiment [8], 0.274 µM; in experiment [9] it was 0.763 µM; in experiment [10], 0.865 µM. In addition, the TGI is 5.75 µM in [1]; over 54.5 µM in experiment [2]; over 85.1 µM in experiment [3]; 10.9 µM in experiment [4]; over 70.2 µM in [5]; over 74.5 µM in experiment [6]. Moreover, the TGI was 6.17 µM in experiment [7], over 49.1 µM in experiment [8], over 56.9 µM in experiment [9] and over 79 µM in experiment [10].

Turning to `N#CC(C(=O)/C(=N/Nc1nc(=S)[nH]n1N)C(C#N)c1ccccc1)c1ccccc1` (stereo not given), the TGI in experiment [1], in [2], in experiment [3], in experiment [4], in experiment [5] and in experiment [6] was over 100 µM in each case. The TGI in experiment [7], in experiment [8], in experiment [9] and in experiment [10] was over 100 µM in each case.

On to `Cc1ccc(N(CSc2ccc(Cl)cc2)CSc2ccc(Cl)cc2)cc1`, for which the GI50 is 2.25 µM in experiment [1]; 0.481 µM in experiment [2]; 1.09 µM in experiment [3]; 0.375 µM in experiment [4]; 1.74 µM in experiment [5]; 0.717 µM in [6]. For the same compound, the GI50 in experiment [7] was 2.57 µM; in experiment [8] it was 2.11 µM; in experiment [9], 2.71 µM; in experiment [10] it was 0.501 µM. Also, the TGI is 12.1 µM in experiment [1]; 5.87 µM in experiment [2]; 2.45 µM in experiment [3]; 2.6 µM in experiment [4]; 13 µM in experiment [5]; 2.75 µM in experiment [6]. The TGI in [7] is 23 µM; in experiment [8] it was 15.7 µM; in [9], 16.4 µM; in experiment [10] it was 14.5 µM.

With `COC(COC(=O)N1CCN(C=O)CC1)C1=C(N2CC2)C(=O)C(C)=C(N2CC2)C1=O` (stereo not given), the TGI came out at 1.07 µM in experiment [1]; 1.38 µM in [2]; 3.05 µM in experiment [3]; 4.55 µM in experiment [4]; 8.64 µM in [5]; 3.19 µM in experiment [6]. Also, the concentration for total growth inhibition (TGI) in [7] came to 4.01 µM; in experiment [8] it was 0.424 µM; in experiment [9] it was 6.57 µM; in [10] it was 1.14 µM.

On to `Cc1c(C2Nc3ccccc3C2C)[nH]c2ccccc12` (stereo not given), for which the GI50 in experiment [1] was 4.26 µM; in [2] it was 2.96 µM; in experiment [3] it was 10.9 µM; in experiment [4] it was 11.5 µM; in experiment [5] it was 14.8 µM; in experiment [6], 6.27 µM. Further, the GI50 in experiment [7] was 14.5 µM; in experiment [8] it was 10.1 µM; in [9], 12.1 µM; in experiment [10] it was 11.4 µM. Moreover, the concentration for total growth inhibition (TGI) in [1] was determined as 27.8 µM; in [2], 27.3 µM; in experiment [3], 31.3 µM; in experiment [4] it was 28.1 µM; in experiment [5], 30.9 µM; in experiment [6], 22.1 µM. Further, the TGI in [7] was 38.7 µM; in [8], 23.1 µM; in experiment [9] it was 26.1 µM; in experiment [10], 24.1 µM.

`CC(=O)Oc1ccc(Nc2c3ccccc3nc3ccccc23)cc1`: the GI50 was 0.476 µM in experiment [1]; 1.15 µM in experiment [2]; 0.675 µM in experiment [3]; 0.914 µM in [4]; 2.08 µM in experiment [5]; 0.693 µM in experiment [6]. Further, the GI50 in experiment [7] is 0.536 µM; in [8] it was 0.382 µM; in experiment [9], 0.971 µM; in experiment [10], 1.42 µM. The total growth inhibition concentration (TGI) in [1] was 10.1 µM; in experiment [2], 6.98 µM; in [3], 3.08 µM; in experiment [4], 7.94 µM; in [5] it was 6.75 µM; in experiment [6], 2.59 µM. The TGI in [7] is 3 µM; in experiment [8], 2.02 µM; in experiment [9], 3.48 µM; in [10] it was 10.3 µM.

As for `CCN(CC)CCOc1ccc(/C(=C(\C)c2ccc(F)c(OC)c2)c2ccc(Cl)cc2)cc1`, the GI50 in experiment [1] is 2.17 µM; in experiment [2], 2.45 µM; in [3], 2.53 µM; in experiment [4], 2.61 µM; in experiment [5], 2.4 µM; in [6], 1.89 µM. The GI50 is 2.51 µM in experiment [7], 2.7 µM in [8], 2.51 µM in [9] and 2.38 µM in [10]. The TGI in [1] is 4.74 µM; in experiment [2], 5.4 µM; in [3], 5.14 µM; in experiment [4], 4.98 µM; in [5] it was 4.83 µM; in experiment [6], 3.96 µM. Moreover, the TGI worked out at 5.28 µM in experiment [7], 5.31 µM in experiment [8], 4.99 µM in experiment [9] and 4.64 µM in experiment [10].

In the case of `COc1ccc(-n2cc(-c3ccc(Cl)c(Cl)c3)nc2SCc2cccc(C#N)c2)cc1`, the GI50 in experiment [1] is 34.5 µM; in [2], 4.77 µM; in [3] it was 77 µM; in experiment [4], 22.2 µM; in experiment [5], 94.1 µM; in experiment [6], 35.2 µM. The GI50 was over 100 µM in experiment [7], 30.4 µM in [8], 24.7 µM in experiment [9] and 14 µM in [10]. For the same compound, the TGI was over 100 µM in experiment [1]; 28.3 µM in experiment [2]; over 100 µM in experiment [3]; over 100 µM in experiment [4]; over 100 µM in experiment [5]; over 100 µM in [6]. In addition, the TGI is over 100 µM in experiment [7], over 100 µM in experiment [8], over 100 µM in experiment [9] and 35.7 µM in experiment [10].
